Here are results for five compounds from patent US6358947B1 (American Home Products Corporation, priority 1999, dated 2002).

A word on the Ki: it is a measure of affinity in units of concentration, obtained from inhibition or displacement.

The target in one assay is T1, hAR (Homo sapiens, UniProt P10275).
T1 sequence (P10275 1-920): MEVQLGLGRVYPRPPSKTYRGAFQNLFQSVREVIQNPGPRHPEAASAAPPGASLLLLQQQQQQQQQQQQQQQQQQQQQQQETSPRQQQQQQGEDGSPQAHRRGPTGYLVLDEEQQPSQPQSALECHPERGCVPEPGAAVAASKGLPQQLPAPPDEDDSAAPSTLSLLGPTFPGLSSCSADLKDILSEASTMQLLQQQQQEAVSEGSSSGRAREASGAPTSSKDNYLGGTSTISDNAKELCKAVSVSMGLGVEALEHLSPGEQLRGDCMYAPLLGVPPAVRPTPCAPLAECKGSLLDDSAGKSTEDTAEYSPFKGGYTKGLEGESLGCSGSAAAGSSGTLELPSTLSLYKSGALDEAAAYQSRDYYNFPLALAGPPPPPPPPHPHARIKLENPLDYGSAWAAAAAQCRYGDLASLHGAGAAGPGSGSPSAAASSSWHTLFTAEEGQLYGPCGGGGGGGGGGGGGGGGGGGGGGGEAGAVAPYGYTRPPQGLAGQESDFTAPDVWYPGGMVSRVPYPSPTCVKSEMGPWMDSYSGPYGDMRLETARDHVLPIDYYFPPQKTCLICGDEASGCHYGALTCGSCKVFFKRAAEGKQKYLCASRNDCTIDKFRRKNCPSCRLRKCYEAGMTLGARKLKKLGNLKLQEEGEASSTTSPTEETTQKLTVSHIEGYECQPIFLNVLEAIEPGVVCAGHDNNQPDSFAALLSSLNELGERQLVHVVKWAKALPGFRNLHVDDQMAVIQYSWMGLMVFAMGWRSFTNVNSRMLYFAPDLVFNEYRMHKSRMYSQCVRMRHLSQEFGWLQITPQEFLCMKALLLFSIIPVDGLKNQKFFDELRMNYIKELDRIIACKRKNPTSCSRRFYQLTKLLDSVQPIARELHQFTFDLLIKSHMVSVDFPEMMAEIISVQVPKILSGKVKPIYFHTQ
The assay is described as follows: Cotransfection assay, AR antagonist. The class given is cell-based. The conditions noted are these: read-out: AR Potency Antag.
Excerpt: (§1) The cotransfection assay provides a method for identifying functional agonists and partial agonists that mimic, or antagonists that inhibit, the effect of native hormones, and for quantifying their activity for responsive intracellular receptor (IR) proteins. In this regard, the cotransfection assay mimics an in vivo system in the laboratory. Importantly, activity in the cotransfection assay correlates very well with known in vivo activity, such that the cotransfection assay functions as a qualitative and quantitative predictor of a tested compound's in vivo pharmacology.
(§2) In the cotransfection assay, a cloned cDNA for an IR (e.g., human PR, AR or GR) under the control of a constitutive promoter (e.g., the SV 40 promoter) is introduced by transfection (a procedure to induce cells to take up foreign genes) into a background cell substantially devoid of endogenous IRs. This introduced gene directs the recipient cells to make the IR protein of interest. A second gene is also introduced (cotransfected) into the same cells in conjunction with the IR gene. This second gene, comprising the cDNA for a reporter protein, such as firefly luciferase (LUC), is controlled by an appropriate hormone responsive promoter containing a hormone response element (HRE). This reporter plasmid functions as a reporter for the transcription-modulating activity of the target IR. Thus, the reporter acts as a surrogate for the products (mRNA, then protein) normally expressed by a gene under control of the target receptor and its native hormone.
(§3) The cotransfection assay can detect small molecule agonists or antagonists of target IRs. Exposing the transfected cells to an agonist ligand compound increases reporter activity in the transfected cells. This activity can be conveniently measured, e.g., by increasing luciferase production, which reflects compound-dependent, IR-mediated increases in reporter transcription. […] Increasing concentrations of a suspected antagonist will decrease the reporter signal (e.g., luciferase production). The cotransfection assay is therefore useful to detect both agonists and antagonists of specific IRs. Furthermore, it determines not only whether a compound interacts with a particular IR, but whether this interaction mimics (agonizes) or blocks (antagonizes) the effects of the native regulatory molecules on target gene expression, as well as the specificity and strength of this interaction.
In the case of `CC1(C)OC(=O)Nc2ccc3c(c21)COc1c(F)cc(C#N)cc1-3` [Compound 26, 9-cyano-7-fluoro-4,4-dimethyl-5H-chromeno[3,4-f]-1,3-benzo[d]oxazin-2-one], the IC50 amounted to 300 nM.
Same read-out and setting: the result for `CC1(C)OC(=O)Nc2ccc3c(c21)COc1c(F)cccc1-3` [Compound 14, 7-Fluoro-4,4-dimethyl-5H-chromeno[3,4-f]-1,3-benzo[d]oxazin-2-one] reads 200 nM; that for `CC1(C)OC(=O)Nc2ccc3c(c21)COc1c(F)cc(C=NO)cc1-3` [Compound 25, 7-fluoro-9-hydroxyiminomethyl-4,4-dimethyl-5H-chromeno[3,4-f]-1,3-benzo[d]oxazin-2-one], 100 nM; that for `CC1(C)OC(=O)Nc2ccc3c(c21)COc1c(F)cc(Br)cc1-3` [Compound 20, 9-Bromo-7-fluoro-4,4-dimethyl-5H-chromeno[3,4-f]-1,3-benzo[d]oxazin-2-one], 1000 nM.
As for `CC1(C)OC(=O)Nc2ccc3c(c21)COc1c(F)cc(C=O)cc1-3` [Compound 24, 7-fluoro-9-formyl-4,4-dimethyl-5H-chromeno[3,4-f]-1,3-benzo[d]oxazin-2-one], the IC50 is 130 nM.

For another assay, the target named is T1, hAR. The assay is described as follows: Cotransfection assay, AR agonist. The class given is cell-based. The conditions noted are these: read-out: AR Potency Agon.
Excerpt: as §1, §2, §3
With `CC1(C)OC(=O)Nc2ccc3c(c21)COc1c(F)cc(C#N)cc1-3` [Compound 26, 9-cyano-7-fluoro-4,4-dimethyl-5H-chromeno[3,4-f]-1,3-benzo[d]oxazin-2-one], the EC50 is greater than 10000 nM.
In the case of `CC1(C)OC(=O)Nc2ccc3c(c21)COc1c(F)cccc1-3` [Compound 14, 7-Fluoro-4,4-dimethyl-5H-chromeno[3,4-f]-1,3-benzo[d]oxazin-2-one], the EC50 is greater than 10000 nM.
For `CC1(C)OC(=O)Nc2ccc3c(c21)COc1c(F)cc(C=NO)cc1-3` [Compound 25, 7-fluoro-9-hydroxyiminomethyl-4,4-dimethyl-5H-chromeno[3,4-f]-1,3-benzo[d]oxazin-2-one], the EC50 was greater than 10000 nM.
Take `CC1(C)OC(=O)Nc2ccc3c(c21)COc1c(F)cc(Br)cc1-3` [Compound 20, 9-Bromo-7-fluoro-4,4-dimethyl-5H-chromeno[3,4-f]-1,3-benzo[d]oxazin-2-one]: the EC50 is greater than 10000 nM.
With `CC1(C)OC(=O)Nc2ccc3c(c21)COc1c(F)cc(C=O)cc1-3` [Compound 24, 7-fluoro-9-formyl-4,4-dimethyl-5H-chromeno[3,4-f]-1,3-benzo[d]oxazin-2-one], the EC50 was greater than 10000 nM.

A further assay deals with T2, hGR (Homo sapiens, UniProt P04150).
T2 sequence (P04150 1-777): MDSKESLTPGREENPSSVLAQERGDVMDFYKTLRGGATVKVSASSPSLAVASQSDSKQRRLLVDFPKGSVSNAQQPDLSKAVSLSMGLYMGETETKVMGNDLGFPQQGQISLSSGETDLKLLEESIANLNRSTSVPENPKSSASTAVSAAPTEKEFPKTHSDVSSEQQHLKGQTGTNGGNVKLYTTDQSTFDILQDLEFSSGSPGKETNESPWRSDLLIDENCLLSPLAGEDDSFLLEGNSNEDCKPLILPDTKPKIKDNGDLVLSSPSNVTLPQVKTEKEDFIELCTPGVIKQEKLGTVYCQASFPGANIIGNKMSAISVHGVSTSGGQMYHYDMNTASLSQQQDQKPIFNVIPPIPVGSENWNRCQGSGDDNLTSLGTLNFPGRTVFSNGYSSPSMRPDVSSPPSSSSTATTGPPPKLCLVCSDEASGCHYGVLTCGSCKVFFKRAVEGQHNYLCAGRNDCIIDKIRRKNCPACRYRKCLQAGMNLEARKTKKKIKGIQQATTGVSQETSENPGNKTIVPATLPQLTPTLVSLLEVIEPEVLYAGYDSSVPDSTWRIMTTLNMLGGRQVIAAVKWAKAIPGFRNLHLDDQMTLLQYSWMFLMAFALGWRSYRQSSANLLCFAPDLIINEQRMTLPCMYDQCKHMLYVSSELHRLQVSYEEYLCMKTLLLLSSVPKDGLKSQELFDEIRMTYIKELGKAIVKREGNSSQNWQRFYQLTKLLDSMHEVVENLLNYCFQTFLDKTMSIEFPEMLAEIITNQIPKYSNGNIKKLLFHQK
Put plainly: Cotransfection assay, GR antagonist. It counts as cell-based. The conditions noted are these: read-out: GR Potency Antag.
Excerpt: as §1, §2, §3
Turning to `CC1(C)OC(=O)Nc2ccc3c(c21)COc1c(F)cc(C#N)cc1-3` [Compound 26, 9-cyano-7-fluoro-4,4-dimethyl-5H-chromeno[3,4-f]-1,3-benzo[d]oxazin-2-one], the IC50 is greater than 10000 nM.
Consider `CC1(C)OC(=O)Nc2ccc3c(c21)COc1c(F)cccc1-3` [Compound 14, 7-Fluoro-4,4-dimethyl-5H-chromeno[3,4-f]-1,3-benzo[d]oxazin-2-one], for which the IC50 was greater than 10000 nM.
With `CC1(C)OC(=O)Nc2ccc3c(c21)COc1c(F)cc(C=NO)cc1-3` [Compound 25, 7-fluoro-9-hydroxyiminomethyl-4,4-dimethyl-5H-chromeno[3,4-f]-1,3-benzo[d]oxazin-2-one], the IC50 was greater than 10000 nM.
As for `CC1(C)OC(=O)Nc2ccc3c(c21)COc1c(F)cc(Br)cc1-3` [Compound 20, 9-Bromo-7-fluoro-4,4-dimethyl-5H-chromeno[3,4-f]-1,3-benzo[d]oxazin-2-one], the IC50 is greater than 10000 nM.
In the case of `CC1(C)OC(=O)Nc2ccc3c(c21)COc1c(F)cc(C=O)cc1-3` [Compound 24, 7-fluoro-9-formyl-4,4-dimethyl-5H-chromeno[3,4-f]-1,3-benzo[d]oxazin-2-one], the IC50 is greater than 10000 nM.

Another assay deals with T3, hPR-A (Homo sapiens, UniProt P06401).
T3 sequence (P06401 1-769 isoform P06401-2): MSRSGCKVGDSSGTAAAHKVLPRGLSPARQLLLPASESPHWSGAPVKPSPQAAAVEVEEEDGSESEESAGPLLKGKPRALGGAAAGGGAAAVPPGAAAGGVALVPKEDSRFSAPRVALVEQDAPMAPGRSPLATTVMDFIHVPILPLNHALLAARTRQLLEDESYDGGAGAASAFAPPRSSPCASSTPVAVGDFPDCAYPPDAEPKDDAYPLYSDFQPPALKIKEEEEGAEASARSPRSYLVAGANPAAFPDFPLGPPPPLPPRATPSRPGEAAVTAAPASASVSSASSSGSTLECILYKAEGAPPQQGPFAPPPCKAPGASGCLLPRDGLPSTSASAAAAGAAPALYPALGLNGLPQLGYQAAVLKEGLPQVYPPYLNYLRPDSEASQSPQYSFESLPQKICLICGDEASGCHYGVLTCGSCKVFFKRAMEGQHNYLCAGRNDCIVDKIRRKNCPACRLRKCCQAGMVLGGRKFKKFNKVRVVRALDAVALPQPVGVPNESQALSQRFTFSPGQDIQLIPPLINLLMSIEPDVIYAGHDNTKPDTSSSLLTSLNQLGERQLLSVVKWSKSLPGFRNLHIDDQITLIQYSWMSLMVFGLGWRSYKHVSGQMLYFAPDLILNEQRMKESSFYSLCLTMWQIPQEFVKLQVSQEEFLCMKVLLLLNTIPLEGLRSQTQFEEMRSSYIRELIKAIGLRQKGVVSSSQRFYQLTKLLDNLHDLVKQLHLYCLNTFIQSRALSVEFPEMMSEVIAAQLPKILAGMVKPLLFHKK
Put plainly: PR receptor binding assay.
Conditions: not given
With `CC1(C)OC(=O)Nc2ccc3c(c21)COc1c(F)cc(C#N)cc1-3` [Compound 26, 9-cyano-7-fluoro-4,4-dimethyl-5H-chromeno[3,4-f]-1,3-benzo[d]oxazin-2-one], affinity was put at a Ki of 20 nM. In other words, the double-digit nanomolar range.
Take `CC1(C)OC(=O)Nc2ccc3c(c21)COc1c(F)cccc1-3` [Compound 14, 7-Fluoro-4,4-dimethyl-5H-chromeno[3,4-f]-1,3-benzo[d]oxazin-2-one]: the Ki stood at 172 nM.
`CC1(C)OC(=O)Nc2ccc3c(c21)COc1c(F)cc(C=NO)cc1-3` [Compound 25, 7-fluoro-9-hydroxyiminomethyl-4,4-dimethyl-5H-chromeno[3,4-f]-1,3-benzo[d]oxazin-2-one] gave an inhibition constant Ki of 65 nM.
With `CC1(C)OC(=O)Nc2ccc3c(c21)COc1c(F)cc(Br)cc1-3` [Compound 20, 9-Bromo-7-fluoro-4,4-dimethyl-5H-chromeno[3,4-f]-1,3-benzo[d]oxazin-2-one], the affinity, expressed as Ki, was 17 nM. Against the preceding compound, the Ki is about 3.8-fold lower.
Same read-out and setting: to `CC1(C)OC(=O)Nc2ccc3c(c21)COc1c(F)cc(C=O)cc1-3` [Compound 24, 7-fluoro-9-formyl-4,4-dimethyl-5H-chromeno[3,4-f]-1,3-benzo[d]oxazin-2-one] belongs 181 nM.
